# The supplement of paper PMC10307832
# Columns and labels:
# [1] = compound: CN(C)C(=N)NC(=N)N [Metformin] + CC(=O)Nc1cccc(-n2c(=O)n(C3CC3)c(=O)c3c(Nc4ccc(I)cc4F)n(C)c(=O)c(C)c32)c1 [Trametinib] (partner 0.02 µM); test: relative viability (nuclei count vs DMSO), 5 days (fraction); higher = more cells survive
# In short: (§1)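 One day after seeding in 1536-well plates, lung cancer cell lines were dosed by pin tool. Dosing was either single-drug or a fixed anchor-drug dose plus five library-drug doses (not always all listed) in √10 steps. After 5 days, nuclei were stained in one fix-and-stain step and counted on 4× images, and relative viability is the nuclei count of treated wells over that of vehicle wells, given as the median of duplicate plates.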
# [2] = compound: N#CC1(c2ccc(NC(=O)c3cccnc3NCc3ccncc3)cc2)CCCC1 [Apatinib] + Cc1nc(Nc2ncc(C(=O)Nc3c(C)cccc3Cl)s2)cc(N2CCN(CCO)CC2)n1 [Dasatinib] (partner 0.075 µM); test: as above
# In short: as §1
Cell Line,relative viability ([1]; first compound 31.62 µM),relative viability ([1]; first compound 100 µM),relative viability ([1]; first compound 316.23 µM),relative viability ([1]; first compound 1000 µM),relative viability ([1]; first compound 10 µM),relative viability ([2]; first compound 0.08 µM),relative viability ([2]; first compound 0.253 µM),relative viability ([2]; first compound 0.8 µM),relative viability ([2]; first compound 2.53 µM),relative viability ([2]; first compound 8 µM)
HCC-44,1.04,1.12,0.931,0.989,,,,,,
HOP-62,0.497,0.427,0.364,0.485,0.409,0.732,0.699,0.689,0.571,0.589
NCI-H358,0.128,0.139,0.137,0.157,0.12,0.188,0.151,0.139,0.206,0.186
NCI-H596,0.899,1.01,0.706,0.872,0.965,0.634,0.564,0.556,0.564,0.555
ABC-1,,,,,,,0.631,0.492,0.509,0.484
SW 900,1.07,,0.825,1.2,1.09,0.699,0.429,0.545,0.476,0.491
NCI-H1734,0.763,0.653,0.662,0.726,0.652,0.547,0.521,0.439,0.424,0.399
HARA,1.35,1.27,1.22,1.13,1.45,0.373,0.242,0.209,0.213,0.248
NCI-H1915,0.302,0.302,0.289,,,0.323,0.32,0.293,0.321,0.36
NCI-H1355,0.356,0.395,0.474,0.427,0.416,0.682,0.791,0.687,0.621,0.614
NCI-H1650,0.602,0.718,0.474,0.458,0.597,,0.346,0.341,0.23,0.262
HCC-78,1.3,1.15,1.1,0.541,,0.332,0.289,0.361,0.333,0.302
NCI-H1666,0.676,0.759,0.771,0.941,0.687,0.931,0.803,0.796,0.703,0.713
HCC-15,0.396,0.4,0.37,0.395,,0.686,0.626,0.605,0.574,0.63
EKVX,0.196,0.354,0.265,0.334,,0.603,0.621,0.478,0.361,0.325
NCI-H3122,0.21,0.258,0.188,0.209,0.163,0.858,0.666,0.836,0.845,0.538
NCI-H1651,0.999,1.01,0.903,1,0.908,0.386,0.492,0.387,0.251,0.365
COR-L23,0.506,0.5,0.456,0.506,0.538,0.469,0.598,0.518,0.45,0.405
